In ChEMBL document CHEMBL5375956, “Discovery of Pyrazolo[1,5-a]pyrimidine Derivative as a Novel and Selective ALKBH5 Inhibitor for the Treatment of AML” (J Med Chem, 2023):
pIC50, pKd: −log10 of the molar value. Activity calls are given as the source filed them. The calls are words filed in the database; no cut-off is given here.

Experiments:
RNA demethylase ALKBH5 [1] = biological target: T1, RNA demethylase ALKBH5 (Homo sapiens, UniProt Q6P6C2); assay: Inhibition of ALKBH5 in human MV4-11 cells assessed as increase in m6A mRNA methylation level at 20 uM incubated for 48 hrs by LC-MS/MS analysis; type: cell-based
Target sequence in this assay (Q6P6C2 2-394 limits assumed): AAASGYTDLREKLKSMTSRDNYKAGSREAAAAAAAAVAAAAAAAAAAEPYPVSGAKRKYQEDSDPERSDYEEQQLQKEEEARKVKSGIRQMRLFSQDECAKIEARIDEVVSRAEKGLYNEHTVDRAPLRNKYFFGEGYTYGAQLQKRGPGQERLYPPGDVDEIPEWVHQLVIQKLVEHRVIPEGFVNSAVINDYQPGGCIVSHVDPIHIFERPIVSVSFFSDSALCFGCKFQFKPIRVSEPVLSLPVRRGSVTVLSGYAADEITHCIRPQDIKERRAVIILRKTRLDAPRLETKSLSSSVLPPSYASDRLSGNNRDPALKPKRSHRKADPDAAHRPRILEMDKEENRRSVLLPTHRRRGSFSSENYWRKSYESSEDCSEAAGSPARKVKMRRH

MV4-11 [2] = assay: Antitumor activity against human MV4-11 cells xenografted in nude mouse assessed as tumor growth inhibition at 40 mg/kg, ip treated every day for 14 days relative to control; type: functional; conditions: MV4-11, 336 h, time 14 day, read-out: TGI
MV4-11 [3] = assay: Antiproliferative activity against human MV4-11 cells assessed as inhibition of cell proliferation incubated for 72 hrs by Cell Titer Luminescence assay; type: functional, cell-based; conditions: MV4-11, 72 h
HUVEC [4] = assay: Effect on c-Myc mRNA level in HUVEC cells at 5 to 10 uM incubated for 48 hrs by qRT-PCR analysis; type: functional, cell-based; conditions: Homo sapiens, dose 5-10 µM
[5] = Toxicity in nude mouse xenografted with human MV4-11 cells assessed as body weight change at 10 to 40 mg/kg, ip treated every day for 14 days; type: organism-based; conditions: in vivo, 336 h, dose 10-40 mg/kg, time 14 day
RNA demethylase ALKBH5 [6] = biological target: RNA demethylase ALKBH5 (Homo sapiens, UniProt Q6P6C2, K132A); assay: Binding affinity to NT-647-NHS fluorescent dye-labeled ALKBH5 K132A mutant (unknown origin) expressed in Escherichia coli BL21(DE3) using m6A-ssDNA as substrate assessed as dissociation constant incubated for 15 mins by MST assay
[7] = Metabolic stability in human liver microsomes assessed as clearance measured upto 240 mins by LC-MS/MS analysis; type: ADME, Microsome; conditions: read-out: CLH
MV4-11 [8] = assay: Induction of apoptosis in human MV4-11 cells assessed as viable cells at 10 uM incubated for 48 hrs by Annexin V-FITC/PI staining based flow cytometry (reference value: 89.8 %); type: functional; conditions: read-out: Activity
MOLM-13 [9] = assay: Induction of apoptosis in human MOLM-13 cells assessed as late apoptosis cells at 10 uM incubated for 48 hrs by Annexin V-FITC/PI staining based flow cytometry (reference value: 6.49 %); type: functional
[10] = Half life in Sprague-Dawley rat at 2 mg/kg, iv measured for 1 to 1440 mins by LC-MS/MS analysis; type: ADME, organism-based; conditions: in vivo, time 1-1440 min
HEK293 [11] = assay: Effect on TACC3 mRNA level in HEK293 cells at 5 to 10 uM incubated for 48 hrs by qRT-PCR analysis; type: functional, cell-based; conditions: Homo sapiens, dose 5-10 µM
[12] = Metabolic stability in human plasma assessed as half life measured upto 240 mins by LC-MS/MS analysis; type: ADME, cell-free
[13] = Apparent oral clearance in Sprague-Dawley rat at 10 mg/kg, po measured for 1 to 1440 mins by LC-MS/MS analysis; type: ADME, organism-based; conditions: in vivo, time 1-1440 min
MV4-11 [14] = assay: Induction of apoptosis in human MV4-11 cells assessed as early apoptosis cells at 10 uM incubated for 48 hrs by Annexin V-FITC/PI staining based flow cytometry (reference value: 1.24 %); type: functional
[15] = biological target: Alpha-ketoglutarate-dependent dioxygenase FTO (Homo sapiens, UniProt Q9C0B1); assay: Inhibition of FTO (32 to 505 residues)(unknown origin) expressed in Escherichia coli BL21(DE3) using 5'-TAGACATTGCCATTCTCGATAGG(m6A)-TCCGGTCAAACCTAGACGAATTCCA-3' as substrate at 100 uM incubated for 2 hrs by restriction endonuclease digestion assay
HEK293 [16] = assay: Antiproliferative activity against HEK293 cells assessed as inhibition of cell proliferation incubated for 72 hrs by Cell Titer Luminescence assay; type: functional, cell-based; conditions: Homo sapiens, HEK293, 72 h
[17] = biological target: T2, Alpha-ketoglutarate-dependent dioxygenase alkB homolog 3 (Homo sapiens) (UniProt Q96Q83); assay: Inhibition of ALKBH3 (62 to 286 residues)(unknown origin) expressed in Escherichia coli BL21(DE3) using 5'-TAGACATTGCCATTCTCGATAGG(m6A)-TCCGGTCAAACCTAGACGAATTCCA-3' as substrate at 100 uM incubated for 2 hrs by restriction endonuclease digestion assay
T2 sequence (whole entry): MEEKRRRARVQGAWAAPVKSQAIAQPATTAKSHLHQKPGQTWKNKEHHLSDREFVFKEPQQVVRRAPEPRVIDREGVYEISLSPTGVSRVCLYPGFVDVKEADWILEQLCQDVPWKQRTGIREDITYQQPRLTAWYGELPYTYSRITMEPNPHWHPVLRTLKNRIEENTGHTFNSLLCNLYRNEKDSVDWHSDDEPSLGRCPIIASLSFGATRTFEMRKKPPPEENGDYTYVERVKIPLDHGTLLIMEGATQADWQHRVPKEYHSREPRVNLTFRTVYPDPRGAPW

HUVEC [18] = assay: Effect on TACC3 level in HUVEC cells upto 10 uM incubated for 48 hrs by Western blot analysis; type: functional, cell-based; conditions: Homo sapiens
MOLM-13 [19] = assay: Induction of apoptosis in human MOLM-13 cells assessed as necrotic cells at 5 uM incubated for 48 hrs by Annexin V-FITC/PI staining based flow cytometry (reference value: 1.00 %); type: functional
[20] = Metabolic stability in rat plasma assessed as half life measured upto 240 mins by LC-MS/MS analysis; type: ADME, cell-free
[21] = Half life in Sprague-Dawley rat at 10 mg/kg, po measured for 1 to 1440 mins by LC-MS/MS analysis; type: ADME, organism-based; conditions: in vivo, time 1-1440 min
RNA demethylase ALKBH5 [22] = biological target: T1, RNA demethylase ALKBH5; assay: Inhibition of ALKBH5 in HEK293 cells assessed as increase in m6A RNA level at 10 to 40 uM by colorimetric assay; type: cell-based; conditions: dose 10-40 µM
Target sequence in this assay (Q6P6C2 2-394 limits assumed): as the sequence (Q6P6C2 2-394 limits assumed) above

[23] = Toxicity in nude mouse xenografted with human MV4-11 cells assessed as kidney weight change at 10 to 40 mg/kg, ip treated every day for 14 days; type: organism-based; conditions: in vivo, 336 h, dose 10-40 mg/kg, time 14 day
MV4-11 [24] = assay: Induction of apoptosis in human MV4-11 cells assessed as viable cells at 5 uM incubated for 48 hrs by Annexin V-FITC/PI staining based flow cytometry (reference value: 89.8 %); type: functional; conditions: read-out: Activity
RNA demethylase ALKBH5 [25] = biological target: T1, RNA demethylase ALKBH5; assay: Competitive binding affinity to ALKBH5 (66 to 292 residues)(unknown origin) expressed in Escherichia coli BL21(DE3) using 5'-ATTGTCA(m6A)CAGCAGA-FAM-3' as substrate assessed as dissociation constant incubated for 30 mins in presence of 2-OG by FP assay
Target sequence in this assay (Q6P6C2 whole entry): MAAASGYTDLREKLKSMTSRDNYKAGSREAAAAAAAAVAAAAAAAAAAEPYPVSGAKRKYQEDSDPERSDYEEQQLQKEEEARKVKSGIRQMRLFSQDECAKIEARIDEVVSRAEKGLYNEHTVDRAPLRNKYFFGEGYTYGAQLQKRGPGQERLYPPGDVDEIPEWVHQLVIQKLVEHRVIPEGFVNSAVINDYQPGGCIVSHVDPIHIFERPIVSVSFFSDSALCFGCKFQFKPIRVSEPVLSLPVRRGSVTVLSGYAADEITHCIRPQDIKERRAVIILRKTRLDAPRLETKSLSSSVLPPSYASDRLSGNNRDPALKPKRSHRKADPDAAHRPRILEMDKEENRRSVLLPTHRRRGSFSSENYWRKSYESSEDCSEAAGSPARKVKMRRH

MOLM-13 [26] = assay: Induction of apoptosis in human MOLM-13 cells assessed as early apoptosis cells at 10 uM incubated for 48 hrs by Annexin V-FITC/PI staining based flow cytometry (reference value: 2.72 %); type: functional
MOLM-13 [27] = assay: Induction of apoptosis in human MOLM-13 cells assessed as viable cells at 10 uM incubated for 48 hrs by Annexin V-FITC/PI staining based flow cytometry (reference value: 89.8 %); type: functional; conditions: read-out: Activity
[28] = Cmax in Sprague-Dawley rat at 10 mg/kg, po measured for 1 to 1440 mins by LC-MS/MS analysis; type: ADME, organism-based; conditions: in vivo
[29] = Metabolic stability in human liver microsomes assessed as half life measured upto 240 mins by LC-MS/MS analysis; type: ADME, Microsome
HEK293 [30] = assay: Effect on c-Myc mRNA level in HEK293 cells at 5 to 10 uM incubated for 48 hrs by qRT-PCR analysis; type: functional, cell-based; conditions: Homo sapiens, dose 5-10 µM

Chain of Alpha-ketoglutarate-dependent dioxygenase FTO (Q9C0B1 whole entry, looked up, the tested form may be a part): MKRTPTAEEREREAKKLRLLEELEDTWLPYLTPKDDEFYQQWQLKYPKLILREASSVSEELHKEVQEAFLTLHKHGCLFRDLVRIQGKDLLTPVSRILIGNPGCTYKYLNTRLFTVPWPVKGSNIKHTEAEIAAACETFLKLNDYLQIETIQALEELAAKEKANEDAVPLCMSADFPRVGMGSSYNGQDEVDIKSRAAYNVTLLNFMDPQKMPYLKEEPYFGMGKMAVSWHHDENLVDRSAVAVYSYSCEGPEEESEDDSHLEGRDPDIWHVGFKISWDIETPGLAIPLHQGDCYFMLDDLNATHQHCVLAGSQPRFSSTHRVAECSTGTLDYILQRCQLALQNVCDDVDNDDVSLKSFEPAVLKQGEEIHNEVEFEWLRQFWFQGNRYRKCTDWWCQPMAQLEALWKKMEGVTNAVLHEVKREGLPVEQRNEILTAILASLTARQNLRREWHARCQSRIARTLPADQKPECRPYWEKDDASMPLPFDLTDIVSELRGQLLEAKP
Chain of RNA demethylase ALKBH5 (Homo sapiens, UniProt Q6P6C2, K132A) (Q6P6C2 2-394 K132A limits assumed): as the sequence (Q6P6C2 2-394 limits assumed) above, with K131A counted along it

In the case of `O=C(OCc1ccc(C(F)(F)F)cc1)c1ccc(-c2cc3ncc(C(=O)c4c(O)ccc([N+](=O)[O-])c4O)cn3n2)cc1`, the inhibition (RNA demethylase ALKBH5 [1]) was “Active”, the inhibition in vivo at 40 mg/kg (MV4-11 [2]) was 70.5% and the pIC50 (MV4-11 [3]) was 5.92. The Activity (HUVEC [4]) was “inactive”, the Activity [5] was “Non-Toxic” and the pKd (RNA demethylase ALKBH5 [6]) was 4.28. The microsomal CLint [7] was 3.2 µL/min/mg, the viability at 10 µM (MV4-11 [8]) was 39.9% and the Activity (MOLM-13 [9]) was 31.5%. The half-life [10] was 0.612 h, the Activity (HEK293 [11]) was “inactive” and the half-life [12] was 10.4 h. For the same compound, the CL/F [13] was 28.8 mL/min/kg, the Activity (MV4-11 [14]) was 2.59% and the inhibition [15] was “inactive”. For the same compound, the pIC50 (HEK293 [16]) was 4.01, the inhibition [17] was “inactive” and the Activity (HUVEC [18]) was “inactive”. For the same compound, the Activity (MOLM-13 [19]) was 3.37%, the half-life [20] was 4.18 h and the half-life [21] was 2.47 h. For the same compound, the inhibition (RNA demethylase ALKBH5 [22]) was “Active”, the Activity [23] was “Non-Toxic” and the viability at 5 µM (MV4-11 [24]) was 59%. It also gave a pKd (RNA demethylase ALKBH5 [25]) of about 7.18, an Activity (MOLM-13 [26]) of 2.88% and a viability at 10 µM (MOLM-13 [27]) of 61.5%. For the same compound, the Cmax [28] was 2340 ng/mL, the half-life [29] was 7.17 h and the Activity (HEK293 [30]) was “inactive”.
